Reference: the supplement of paper PMC10307832

Columns and labels:
Test in all cases: relative viability (nuclei count vs DMSO), 5 days (fraction); higher = more cells survive
[1] = compound: O=C(O)c1ccc2c(c1)nc(Nc1cccc(Cl)c1)c1ccncc12 [Silmitasertib] + Cc1nc(Nc2ncc(C(=O)Nc3c(C)cccc3Cl)s2)cc(N2CCN(CCO)CC2)n1 [Dasatinib] (partner 0.075 µM)
Procedure, shortened: (§1)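 Lung cancer cell lines were seeded in 1536-well plates and dosed by pin tool the next day, with either a single drug or a fixed anchor-drug dose combined with five library-drug doses (not always all listed) spaced in √10 steps. Five days later, one step fixed the cells and stained their nuclei (final 0.05% Triton X-100, 1% formaldehyde, 1 ug/ml Hoechst), and nuclei were counted on 4× images. Relative viability is the nuclei count in treated wells divided by the count in vehicle wells, and each value is the median of duplicate plates.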

[2] = compound: O=C(O)c1ccc2c(c1)nc(Nc1cccc(Cl)c1)c1ccncc12 [Silmitasertib] + COc1cc2c(Oc3ccc(NC(=O)C4(C(=O)Nc5ccc(F)cc5)CC4)cc3F)ccnc2cc1OCCCN1CCOCC1 [Foretinib] (partner 0.25 µM)
Procedure, shortened: as §1

[3] = compound: O=C(O)c1ccc2c(c1)nc(Nc1cccc(Cl)c1)c1ccncc12 [Silmitasertib] + Cc1cc(Nc2cc(N3CCN(C)CC3)nc(Sc3ccc(NC(=O)C4CC4)cc3)n2)n[nH]1 [Tozasertib] (partner 0.1 µM)
Procedure, shortened: as §1

[4] = compound: O=C(O)c1ccc2c(c1)nc(Nc1cccc(Cl)c1)c1ccncc12 [Silmitasertib] + CC1(C)CCC(c2ccc(Cl)cc2)=C(CN2CCN(c3ccc(C(=O)NS(=O)(=O)c4ccc(N[C@H](CCN5CCOCC5)CSc5ccccc5)c(S(=O)(=O)C(F)(F)F)c4)cc3)CC2)C1 [Navitoclax] (partner 0.5 µM)
Procedure, shortened: as §1

[5] = compound: O=C(O)c1ccc2c(c1)nc(Nc1cccc(Cl)c1)c1ccncc12 [Silmitasertib] + Nc1ncn([C@H]2C[C@H](O)[C@@H](CO)O2)c(=O)n1 [Decitabine] (partner 2 µM)
Procedure, shortened: as §1

Cell Line	relative viability ([1]; first compound 0.04 µM)	relative viability ([1]; first compound 0.4 µM)	relative viability ([1]; first compound 1.265 µM)	relative viability ([1]; first compound 4 µM)	relative viability ([2]; first compound 0.04 µM)	relative viability ([2]; first compound 0.4 µM)	relative viability ([2]; first compound 1.265 µM)	relative viability ([2]; first compound 4 µM)	relative viability ([3]; first compound 0.04 µM)	relative viability ([3]; first compound 0.4 µM)	relative viability ([3]; first compound 1.265 µM)	relative viability ([3]; first compound 4 µM)	relative viability ([4]; first compound 0.04 µM)	relative viability ([4]; first compound 0.4 µM)	relative viability ([4]; first compound 1.265 µM)	relative viability ([4]; first compound 4 µM)	relative viability ([5]; first compound 0.04 µM)	relative viability ([5]; first compound 1.265 µM)	relative viability ([5]; first compound 4 µM)	relative viability ([5]; first compound 0.4 µM)
EKVX	0.6	0.394	0.478	0.373	0.783	0.435	0.408	0.411	0.434	0.25	0.295	0.405	0.874	0.648	0.681	0.681	0.421	0.374	0.299	–
EMC-BAC-2	0.34	0.301	0.283	0.287	1.04	0.861	0.577	0.411	0.291	0.272	0.198	0.162	1.24	1.03	1.14	1.09	1.01	0.93	0.819	0.951
EPLC-272H	0.372	–	0.255	0.224	0.687	–	0.321	0.219	0.215	–	0.205	0.187	1.09	–	0.747	0.807	0.475	0.296	0.348	–
H3255	0.364	0.34	0.298	0.349	1.02	0.549	0.746	0.97	0.756	0.593	0.678	0.59	0.593	0.294	0.347	0.208	0.563	0.543	0.532	0.703
HARA	0.254	0.246	0.253	0.272	0.87	0.627	0.473	0.734	0.107	0.0804	0.0797	0.0693	1.16	0.88	0.944	0.984	0.698	0.494	0.355	0.554
HCC-15	0.669	0.53	0.396	0.32	1.03	0.86	0.772	0.761	0.392	0.356	0.232	0.133	0.745	0.556	0.548	0.438	0.703	0.404	0.292	0.536
HCC-44	–	–	–	–	–	–	–	–	1.13	0.853	0.802	0.691	0.926	0.874	0.892	0.928	0.933	1.01	0.825	0.929
HCC-78	0.51	0.286	0.309	0.323	0.503	0.523	0.457	0.621	0.446	0.315	0.384	0.492	0.892	0.672	0.757	0.65	0.64	0.381	0.613	0.603
HCC-366	0.57	0.48	0.525	0.379	1	0.877	0.78	1.02	0.107	0.0962	0.0628	0.0717	1.15	–	0.921	0.82	0.37	0.31	0.379	0.347
